Laboratory results reported in PubChem BioAssay AID687032 (Broad Institute, 2013).
Records with an inconclusive call do not appear.

System: IOSE-T80 viability, CellTiterGlo ATP luminescence, 96 h
Test: IOSE-T80 viability loss, PAX8-independent line – cell-based, cherry-pick, selectivity assay for PAX8 inhibitor project, dose response (AID 687032)

Cn1c(CCN2CCCC2)nc2cc(NS(=O)(=O)c3ccccc3)ccc21
AC50: < 260 nM

CN1c2ccc(-c3cccc(F)c3)cc2[C@@H]2[C@@H](CCN2C(=O)Cc2ccccc2)[C@@H]1CO
AC50: < 260 nM

Cc1ccc(S(=O)(=O)Nc2cccc3c2O[C@@H](CN(C)Cc2ccc(Oc4ccccc4)cc2)[C@@H](C)CN([C@H](C)CO)C3=O)cc1
AC50: < 260 nM

COc1cc(C2C3=C(COC3=O)Oc3cc4c(cc32)OCO4)cc(OC)c1O (configuration not stated)
AC50: < 260 nM

COc1cc(OC)cc(C(=O)NCC(=O)OCC(=O)c2cc(C)n(Cc3ccco3)c2C)c1
AC50: < 260 nM

COCCn1c(C)cc(C2=NNC(=NC3CC3)SC2)c1C
AC50: < 260 nM

Cn1c(SCC(=O)c2ccccc2)nnc1-c1ccccn1
AC50: < 260 nM

C[C@@H]1CN([C@H](C)CO)C(=O)c2cc(NC(=O)Nc3ccccc3)ccc2O[C@@H](C)CCCCO[C@@H]1CN(C)Cc1ccc(C(F)(F)F)cc1
AC50: < 260 nM

C[C@@H]1CCCCO[C@@H](CN(C)C(=O)Nc2cccc3ccccc23)[C@H](C)CN([C@H](C)CO)C(=O)c2cc(NS(=O)(=O)c3ccccc3)ccc2O1
AC50: < 260 nM

CCOc1ccc(-n2c(=S)sc3c(=O)[nH]c(SCC(=O)NCC4CCCO4)nc32)cc1 (configuration not stated)
AC50: < 260 nM

CCN(CC)S(=O)(=O)c1cc(NC(=O)Cn2ncc(Cl)c(Cl)c2=O)ccc1C
AC50: < 260 nM

Cc1ccc(C(=O)N/C(=C\c2ccc(-c3ccc(Br)cc3)o2)C(=O)NCCCN(C)C)cc1
AC50: 9400 nM

C[C@@H]1CN([C@H](C)CO)C(=O)c2cc(NC(=O)Nc3ccc(C(F)(F)F)cc3)ccc2O[C@@H](C)CCCCO[C@H]1CN(C)Cc1ccccc1
AC50: < 260 nM

COc1cc(/C=N/O)ccc1OCc1ccc(C(=O)O)cc1
AC50: 9950 nM

C[C@H](CO)N1C[C@H](C)[C@H](CN(C)S(=O)(=O)c2ccc(Cl)cc2)OCCCC[C@H](C)Oc2ccc(NC(=O)Nc3ccc(C(F)(F)F)cc3)cc2C1=O
AC50: < 260 nM

Cc1ccc(NC(=O)Cn2ncc(Cl)c(Cl)c2=O)cc1S(=O)(=O)N1CCCCC1
AC50: < 260 nM

Cc1noc(C)c1S(=O)(=O)Nc1ccc2c(c1)C(=O)N([C@H](C)CO)C[C@H](C)[C@@H](CN(C)C(=O)Nc1ccc(C(F)(F)F)cc1)OCCCC[C@H](C)O2
AC50: 23300 nM

Nc1nc(=S)c2[nH]cnc2[nH]1
AC50: < 260 nM

O=C(C[C@H]1CC[C@H]2[C@@H](COC[C@@H](O)CN2Cc2ccc(Oc3ccccc3)cc2)O1)N1CCCCC1
AC50: < 260 nM

Cc1ccc(-c2csc3ncnc(Sc4nnc(CN5CCCCCC5=O)o4)c23)cc1
AC50: 8670 nM

C[C@]12CCC3C(CCC4=CC(O)CC[C@@]43/C=N/O)C1(O)CCC2C1=CC(=O)OC1 (some centres not stated)
AC50: < 260 nM

COc1ccc(S(=O)(=O)Nc2ccc3c(c2)C(=O)N([C@@H](C)CO)C[C@H](C)[C@@H](CN(C)Cc2ccc(C(F)(F)F)cc2)OCCCC[C@H](C)O3)cc1
AC50: < 260 nM

CC(C)(C)[C@H](N)C(=O)N[C@H]1CCC2C3CC=C4C[C@@H](O)CC[C@]4(C)C3CC[C@@]21C (some centres not stated)
AC50: < 260 nM

O=C(C(=O)N(Cc1ccccc1)Cc1ccccc1)c1c(-c2ccccc2)[nH]c2ccccc12
AC50: < 260 nM

COc1ccc(F)cc1-c1cc(NC=O)c2ncc(-c3cc(OC)c(OC)c(OC)c3)n2c1
AC50: < 260 nM

COc1ccc(NC(=O)Nc2ccc3c(c2)C(=O)N([C@@H](C)CO)C[C@@H](C)[C@@H](CN(C)CC2CCCCC2)OCCCC[C@@H](C)O3)cc1
AC50: < 260 nM

O=C1c2cccc3cc([N+](=O)[O-])cc(c23)C(=O)N1CCN1CCCC1
AC50: < 260 nM

O=C(Nc1ccc(Cl)c(Cl)c1)N[C@@H]1CC[C@H](CCn2cc(C3CCCCC3)nn2)O[C@H]1CO
AC50: < 260 nM

C[C@H](CO)N1C[C@H](C)[C@@H](CN(C)C(=O)Nc2ccnc(N3CCOCC3)c2)OCc2cnnn2CCCC1=O
AC50: < 260 nM

CCN1CCN(c2nc(-c3cccs3)nc3ccccc23)CC1
AC50: 10400 nM

CCOc1ccc(NC(=O)Nc2cc(OCC(F)(F)F)cc(OCC(F)(F)F)c2)cc1
AC50: 8810 nM

C[C@@H]1CN([C@H](C)CO)S(=O)(=O)c2ccc(C#CC3CCCC3)cc2O[C@@H]1CN(C)C(=O)Cc1ccncc1
AC50: < 260 nM

COc1ccc(S(=O)(=O)Nc2ccc3c(c2)C(=O)N([C@H](C)CO)C[C@H](C)[C@@H](CN(C)Cc2ccc(Cl)c(Cl)c2)OCCCC[C@@H](C)O3)cc1
AC50: 6540 nM

S=c1sc2c(Cl)ncnc2n1-c1ccccc1
AC50: < 260 nM

C[C@@H]1CCCCO[C@H](CN(C)C(=O)C2CCCCC2)[C@@H](C)CN([C@@H](C)CO)C(=O)c2cc(NC(=O)Nc3ccc(F)cc3)ccc2O1
AC50: < 260 nM

Cc1nnc(N/N=C/c2cc(C)n(-c3ccc(F)cc3)c2C)n1N
AC50: 10200 nM

C[C@@H]1CCCCO[C@@H](CN(C)C(=O)Nc2cccc3ccccc23)[C@H](C)CN([C@H](C)CO)C(=O)c2cc(NS(=O)(=O)c3ccc(F)cc3)ccc2O1
AC50: < 260 nM

CC1CN(CC(O)COC(c2ccccc2)c2ccccc2)CC(C)O1 (configuration not stated)
AC50: < 260 nM

COc1ccccc1C(=O)Nc1nc2ccccc2[nH]1
AC50: 9810 nM

COc1ccc(Cn2cc3c(-c4ccc(F)cc4)nnc-3c3cc(OC)c(OC)cc32)cc1
AC50: 8490 nM

COc1ccc(CC2C(=O)NC(C)C(=O)N(C)C3Cc4ccc(cc4)Oc4cc(ccc4O)CC(C(=O)NC(C)C(=O)NC(C)C(=O)N2C)N(C)C3=O)cc1 (configuration not stated)
AC50: 27800 nM

C#CCN(C[C@@H]1[C@@H](OC(=O)NCC2CCCCC2)[C@@H](OC(=O)NCC2CCCCC2)Cn2c(=O)ccc(=O)n21)S(=O)(=O)c1ccc(C)cc1
AC50: < 260 nM
